Measured values taken from patent US11628228B2, “99mTc-labeled isonitrile-containing glucose derivative and preparation method and use thereof” (Beijing Shihong Pharmaceutical Research Center, priority 2017, dated 2023).

Tests used:
tumor-bearing mice = experiment: SPECT imaging in tumor-bearing mice; format: in vivo; details: 0.2 mL, 700 μCi tail vein, imaging 1 hour later
Experimental: The prepared [^99mTc-(CN3DG)6]^+ or [^99mTc-(CN5DG)6]^+ (0.2 mL, 700 μCi) is injected into tumor-bearing mice through tail vein, and SPECT imaging is performed 1 hour later.

[1] = Determination of the lipid-water partition coefficient (n-octanol/PBS); format: physicochemical
Experimental: One hundred μL of the labeled substance solution (50 μCi) diluted with normal saline is placed into a 2 mL centrifuge tube, and then 800 μL of n-octanol and 700 μL of PBS are added to the centrifuge tube, which is subsequently covered with a cap. The centrifuge tube is vortexed for 3 minutes (2500 r/minute), allowed to stand until the solution is layered, and centrifuged in a centrifuge for 3 minutes (3000 r/minute). Three samples of the upper organic phase and three samples of the lower aqueous phase are taken, each 100 μL, and detected in a γ-counter for the radioactive counts of the organic and aqueous phases, respectively.

S180-bearing mice = experiment: Bio-distribution in tumor-bearing mice; format: in vivo; details: for Blood uptake / Bone uptake / Heart uptake / Kidney uptake / Liver uptake / Lung uptake / Muscle uptake / Small intestine uptake / Spleen uptake / Stomach uptake / Tumor uptake / Tumor/blood ratio / Tumor/muscle ratio: S180-bearing mice, tail vein
Experimental: The labeled solution (0.1 mL, 74 KBq) is injected into mice through the tail vein, and the injection time is recorded. Then the mice were killed by cervical dislocation at different time phases (30 minutes, 60 minutes, and 120 minutes), five mice for each time phase, and the organs of interest such as heart, liver, lung, kidney, spleen, stomach, muscle, blood and tumor are taken out after dissection, and measured with a γ-counter for the radioactive count of each organ. The uptake value of each organ is obtained by calculation based on the mass of the organ (with % ID/g as the unit).

In the case of `O=C(CCCCC[N+]#[C][99Tc-5]([C]#[N+]CCCCCC(=O)NC1C(O)OC(CO)C(O)C1O)([C]#[N+]CCCCCC(=O)NC1C(O)OC(CO)C(O)C1O)([C]#[N+]CCCCCC(=O)NC1C(O)OC(CO)C(O)C1O)([C]#[N+]CCCCCC(=O)NC1C(O)OC(CO)C(O)C1O)[C]#[N+]CCCCCC(=O)NC1C(O)OC(CO)C(O)C1O)NC1C(O)OC(CO)C(O)C1O` (centres unmarked) [[^99mTc-(CN5DG)6]^+], the “SPECT imaging: aggregation at the tumor sites” value (tumor-bearing mice) is reported as “evident aggregation at the tumor sites”, the “SPECT imaging: concentration in kidney” value (tumor-bearing mice) is reported as “relatively high concentration in kidney” and the “SPECT imaging: uptake in other organs” value (tumor-bearing mice) is reported as “relatively low”. For the same compound, the “Log P (lipid-water partition coefficient)” value [1] was −3.57±0.35, the Blood uptake (S180-bearing mice; 30 min) was 1.58 ± 0.15 % ID/g and the Bone uptake (S180-bearing mice; 30 min) was 0.72 ± 0.11 % ID/g. It also gave a Heart uptake (S180-bearing mice; 30 min) of 0.64 ± 0.12 % ID/g, a Kidney uptake (S180-bearing mice; 30 min) of 4.69 ± 0.76 % ID/g and a Liver uptake (S180-bearing mice; 30 min) of 0.61 ± 0.07 % ID/g. The Lung uptake (S180-bearing mice; 30 min) was 1.58 ± 0.18 % ID/g, the Muscle uptake (S180-bearing mice; 30 min) was 0.46 ± 0.05 % ID/g and the Small intestine uptake (S180-bearing mice; 30 min) was 0.74 ± 0.09 % ID/g. For the same compound, the Spleen uptake (S180-bearing mice; 30 min) was 0.51 ± 0.08 % ID/g, the Stomach uptake (S180-bearing mice; 30 min) was 0.50 ± 0.09 % ID/g and the Tumor uptake (S180-bearing mice; 30 min) was 1.83 ± 0.18 % ID/g. It also gave a Tumor/blood ratio (S180-bearing mice; 30 min) of 1.16, a Tumor/muscle ratio (S180-bearing mice; 30 min) of 3.98 and a Blood uptake (S180-bearing mice; 60 min) of 0.55 ± 0.17 % ID/g. It also gave a Bone uptake (S180-bearing mice; 60 min) of 0.41 ± 0.15 % ID/g, a Heart uptake (S180-bearing mice; 60 min) of 0.41 ± 0.02 % ID/g and a Kidney uptake (S180-bearing mice; 60 min) of 2.68 ± 0.32 % ID/g. For the same compound, the Liver uptake (S180-bearing mice; 60 min) was 0.38 ± 0.08 % ID/g, the Lung uptake (S180-bearing mice; 60 min) was 0.59 ± 0.16 % ID/g and the Muscle uptake (S180-bearing mice; 60 min) was 0.27 ± 0.10 % ID/g. For the same compound, the Small intestine uptake (S180-bearing mice; 60 min) was 0.43 ± 0.07 % ID/g, the Spleen uptake (S180-bearing mice; 60 min) was 0.28 ± 0.07 % ID/g and the Stomach uptake (S180-bearing mice; 60 min) was 0.37 ± 0.14 % ID/g. It also gave a Tumor uptake (S180-bearing mice; 60 min) of 1.07 ± 0.21 % ID/g, a Tumor/blood ratio (S180-bearing mice; 60 min) of 1.94 and a Tumor/muscle ratio (S180-bearing mice; 60 min) of 3.96. The Blood uptake (S180-bearing mice; 120 min) was 0.16 ± 0.02 % ID/g, the Bone uptake (S180-bearing mice; 120 min) was 0.15 ± 0.04 % ID/g and the Heart uptake (S180-bearing mice; 120 min) was 0.22 ± 0.04 % ID/g. It also gave a Kidney uptake (S180-bearing mice; 120 min) of 2.07 ± 0.13 % ID/g, a Liver uptake (S180-bearing mice; 120 min) of 0.34 ± 0.08 % ID/g and a Lung uptake (S180-bearing mice; 120 min) of 0.29 ± 0.06 % ID/g. For the same compound, the Muscle uptake (S180-bearing mice; 120 min) was 0.18 ± 0.03 % ID/g, the Small intestine uptake (S180-bearing mice; 120 min) was 0.22 ± 0.08 % ID/g and the Spleen uptake (S180-bearing mice; 120 min) was 0.17 ± 0.02 % ID/g. It also gave a Stomach uptake (S180-bearing mice; 120 min) of 0.35 ± 0.06 % ID/g, a Tumor uptake (S180-bearing mice; 120 min) of 0.75 ± 0.07 % ID/g and a Tumor/blood ratio (S180-bearing mice; 120 min) of 4.69. For the same compound, the Tumor/muscle ratio (S180-bearing mice; 120 min) was 4.16 and the Tumor/liver ratio (S180-bearing mice; tumor-bearing mice, 0.5 hour after injection) was 3.00.
